Earlier results on one molecule are cited in patent publication US8664187B2, “Methods of treatment of endobronchial infections” (Novartis AG, priority 2004, dated 2014).

Like-named read-outs stand apart in the source and are kept apart here. Where only a bound is given, the exact number is not on record here.

Series [1] deals with Gram-negative bacteria.
In series [2] the test system is P. aeruginosa isolates. The conditions noted are these: CF patients, 1993.
Series [3] relates to P. aeruginosa. The conditions noted are these: 300 mg inhaled twice daily, P<0.001 vs placebo.
Series [4] concerns P. aeruginosa. To be noted: 600 mg tid aerosolized; 71 CF patients.

With `NC[C@H]1O[C@H](O[C@H]2[C@H](O)[C@@H](O[C@H]3O[C@H](CO)[C@@H](O)[C@H](N)[C@H]3O)[C@H](N)C[C@@H]2N)[C@H](N)C[C@@H]1O` [tobramycin], the “concentrations effective in inhibiting the growth of many Gram-negative bacteria” value in series [1] is less than 4 µg/mL. In series [2], the “MICs of 90% of isolates” value was no more than 16 µg/mL and the “MICs of 98% of all isolates” value was no more than 128 µg/mL. For the same molecule, the “average decrease in P. aeruginosa density” value in series [3] (28 days on/28 days off, Week 0 to Week 20) is 0.8 log10. Moreover, the “average decrease in P. aeruginosa density” value in series [3] (Week 0 to Week 4) was 1.9 log10. In series [4], the spirometry entry is given as “improved spirometry” and the “sputum density of P. aeruginosa” value is recorded as “significant reduction in sputum density”.
